Here are results for 1 compound from US7223779B2, “Azasugar derivative and drug containing the same as the active ingredient” (Carna Biosciences Inc., priority 2002, dated 2007).

In experiment [1] the test system is re-epithelialization of keratinocytes, mouse skin wound model. As to the kind of experiment: Mouse skin wound healing model, re-epithelialization of keratinocytes. The experiment is classed as in vivo. Conditions: male BALB/c mice; 6 mm full-thickness wounds; applied once a day; assessed eight days after operation; FIG. 2. How it is done:
Wound healing model was prepared in accordance with the method described by Tsuboi, et al. (J. Dermatol., 19, 673–675 (1992)). After backs of male BALB/c mice were shaved, two full-thickness round wounds (6 mm diameter) were prepared on the back of each mouse using a punch biopsy instrument. In medicine-treated group, immediately after the operation, a test compound suspended in 0.01M phosphate-buffered saline containing 1.5% sodium carboxymethyl cellulose (vehicle) was applied to each wound in a volume of 50 μL/wound. From the following day, the compound was repeatedly applied to each wound once a day for 7 days. In the control group, vehicle solution only was applied in the same manner. Eight days after the operation, mice were sacrificed and skin tissues containing wound area were removed. The tissues were fixed with a 10% neutral buffer formalin solution for one day and embedded in paraffin according to the conventional method. The cross-sections were made perpendicularly to the anterior-posterior axis. Keratinocytes in the specimen were stained by immuno histochemical staining method with an anti-keratin antibody after removing paraffin. Measurements of wound size (mm) and re-epithelialization of keratinocytes (mm) were performed by using an image-analyzing software. Re-epithelialization rate(%) of keratinocytes was calculated as follows with regard to each animal. […]

Experiment [2] concerns epidermal hyperplasia in mice induced by the application of TPA. The experiment can be described thus: TPA-induced epidermal hyperplasia in mouse dorsal skin. The experiment is classed as in vivo. Conditions: male BALB/c mice; applied to skin 5 min, 24 h and 48 h after TPA; doses 1, 10, 100 μg; skin excised at 72 h; FIG. 1. The protocol: After backs of male BALB/c mice were shaved, 10 μL of a TPA-acetone solution (0.1 mM) was applied to the dorsal skin surface in an area of about 1 cm^2. In the medicine-treated group, a volume of 20 μL of a solution prepared by dissolving the test compound in acetone was applied to the same area 5 minutes, 24 hours and 48 hours after TPA application. In the non-treated group, only TPA was applied. In the control group, acetone was applied instead of the TPA-acetone solution.
The mice were sacrificed and the skin tissues were excised 72 hours after TPA application. Then the tissues were fixed with formalin, the vertical sections including the center of the TPA- or acetone-treated area were prepared and embedded in paraffin according to the conventional method. And they were stained by hematoxylin-eosin after removing paraffin. The epidermal thickness was measured using a microscope.
In FIG. 1, the numeral in the ordinate represents the epidermal thickness (μm). A bar graph of TPA (−) represents the epidermal thickness of the control group and a bar graph of TPA represents the epidermal thickness of the non-treated group. The respective bar graphs of 1, 10 and 100 denote the epidermal thickness of the group wherein the test compound is administered at a dose of 1, 10 and 100 (μg/wound) of each test compound. […]

Regarding `O=C(NO)[C@H]1[C@@H](O)[C@H](O)[C@@H](O)CN1S(=O)(=O)c1ccc(Oc2ccccc2)cc1` [Compound c, (2R,3R,4R,5S)-3,4,5-trihydroxy-1-(4′-phenoxybenzenesulfonyl)-piperidine-2-carboxylic Acid Hydroxamide], the “re-epithelialization rate (%) of keratinocytes inhibitory activity” value in experiment [1] is given as “inhibitory activity”. In addition, the “hyperplasia inhibitory activity (epidermal thickness)” value in experiment [2] is “hyperplasia inhibitory activity”.
